Values quoted from earlier work as cited in patent publication US9643990B2, “Non-caloric sweeteners and methods for synthesizing” (Conagen Inc., priority 2014, dated 2017).

Settings: background statement, no method given

| Molecule | sweetness relative to sucrose |
| --- | --- |
| C=C1C[C@@]23CC[C@H]4[C@@](C)(CCC[C@@]4(C)C(=O)O[C@@H]4O[C@H](CO)[C@@H](O)[C@H](O)[C@H]4O)[C@@H]2CC[C@]1(O[C@@H]1O[C@H](CO)[C@@H](O)[C@H](O)[C@H]1O[C@@H]1O[C@H](CO)[C@@H](O)[C@H](O)[C@H]1O)C3 [stevioside, Stevioside] | 100-150 times sweeter than sucrose |
| Dulcoside A | about 30 times sweeter than sucrose |
| Rebaudioside C | 40-60 times sweeter than sucrose |
